Laboratory results from patent US9187471B2, “Pyrido [4,3-b] indole and pyrido [3,4-b] indole derivatives and methods of use” (Medivation Technologies, Inc., priority 2010, dated 2015).

Tests used:
[1] = target: T1, human recombinant dopamine D2L receptor (Homo sapiens, UniProt P14416); experiment: Dopamine D2L radioligand binding ([3H]Spiperone); conditions: 0.16 nM [3H]Spiperone; for inhibition at 1 µM: read-out: Dopamine D2L (1 μM), percent inhibition of specific binding, compound at 1 μM; for inhibition at 0.1 µM: read-out: Dopamine D2L (0.1 μM), percent inhibition of specific binding, compound at 0.1 μM
T1 construct: expressed in transfected cells; host or cells: CHO
Experimental: Non-specific binding was estimated in the presence of 10 μM Haloperidol. Receptor proteins were filtered and washed, the filters were then counted to determine [^3H]Spiperone specifically bound.

[2] = target: T2, human recombinant serotonin (5-Hydroxytryptamine) 5-HT2A receptor (Homo sapiens, UniProt P28223); experiment: Serotonin 5-HT2A radioligand binding ([3H]Ketanserin); conditions: compound at 0.1 μM; read-out: Inhibition of ligand binding, Serotonin 5-HT2A (percent inhibition of specific binding)
T2 construct: expressed in transfected cells; host or cells: CHO-K1
Experimental: Compounds of the invention were incubated with 0.5 nM [^3H]Ketanserin for 60 min at 25° C. Non-specific binding was estimated in the presence of 1 μM Mianserin. Receptor proteins were filtered and washed, the filters were then counted to determine [^3H]Ketanserin specifically bound.

[3] = target: T3, human recombinant serotonin (5-Hydroxytryptamine) 5-HT2C receptor (Homo sapiens, UniProt P28335); experiment: Serotonin 5-HT2C radioligand binding ([3H]Mesulergine); conditions: compound at 0.1 μM; read-out: Inhibition of ligand binding, Serotonin 5-HT2C (percent inhibition of specific binding)
T3 construct: expressed in transfected cells; host or cells: CHO-K1
T3 sequence (P28335 33-458): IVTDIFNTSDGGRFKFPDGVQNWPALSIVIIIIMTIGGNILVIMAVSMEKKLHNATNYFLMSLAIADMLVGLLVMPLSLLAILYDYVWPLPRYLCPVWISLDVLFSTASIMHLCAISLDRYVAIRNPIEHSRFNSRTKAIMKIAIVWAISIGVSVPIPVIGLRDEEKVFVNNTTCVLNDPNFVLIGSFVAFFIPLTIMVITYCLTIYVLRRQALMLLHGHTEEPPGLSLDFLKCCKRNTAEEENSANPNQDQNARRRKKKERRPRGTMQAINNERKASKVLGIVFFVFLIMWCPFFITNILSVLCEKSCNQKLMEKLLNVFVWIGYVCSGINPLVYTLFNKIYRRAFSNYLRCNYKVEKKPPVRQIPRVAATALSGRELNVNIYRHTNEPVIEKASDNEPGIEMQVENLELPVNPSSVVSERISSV
Experimental: Compounds of the invention were incubated with 1 nM [^3H]Mesulergine for 60 min at 25° C. Non-specific binding was estimated in the presence of 1 μM Mianserin. Receptor proteins were filtered and washed, the filters were then counted to determine [^3H]Mesulergine specifically bound.

[4] = target: T4, human recombinant serotonin (5-Hydroxytryptamine) 5-HT7 receptor (Homo sapiens, UniProt P34969); experiment: Serotonin 5-HT7 radioligand binding ([3H]LSD); conditions: compound at 0.1 μM; read-out: Inhibition of ligand binding, Serotonin 5-HT7 (percent inhibition of specific binding)
T4 construct: expressed in transfected cells; host or cells: CHO
Experimental: Lysergic acid diethylamide (LSD) for 120 min. at 25° C. […] Receptor proteins were filtered and washed, the filters were then counted to determine [^3H]LSD specifically bound.

T2 sequence (P28223 whole entry): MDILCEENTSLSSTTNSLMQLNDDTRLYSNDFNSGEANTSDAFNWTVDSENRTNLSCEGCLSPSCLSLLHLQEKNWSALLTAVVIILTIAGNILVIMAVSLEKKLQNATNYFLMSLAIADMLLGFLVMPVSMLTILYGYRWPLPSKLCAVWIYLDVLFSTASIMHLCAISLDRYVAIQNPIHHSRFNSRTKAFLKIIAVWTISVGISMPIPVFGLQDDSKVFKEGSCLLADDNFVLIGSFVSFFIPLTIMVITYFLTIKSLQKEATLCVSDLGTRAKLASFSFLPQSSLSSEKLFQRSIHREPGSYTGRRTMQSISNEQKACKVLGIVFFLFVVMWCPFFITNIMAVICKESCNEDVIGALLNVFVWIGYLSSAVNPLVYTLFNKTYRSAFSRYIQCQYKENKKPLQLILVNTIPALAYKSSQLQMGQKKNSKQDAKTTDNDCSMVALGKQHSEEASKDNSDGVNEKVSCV
T4 sequence (P34969 whole entry): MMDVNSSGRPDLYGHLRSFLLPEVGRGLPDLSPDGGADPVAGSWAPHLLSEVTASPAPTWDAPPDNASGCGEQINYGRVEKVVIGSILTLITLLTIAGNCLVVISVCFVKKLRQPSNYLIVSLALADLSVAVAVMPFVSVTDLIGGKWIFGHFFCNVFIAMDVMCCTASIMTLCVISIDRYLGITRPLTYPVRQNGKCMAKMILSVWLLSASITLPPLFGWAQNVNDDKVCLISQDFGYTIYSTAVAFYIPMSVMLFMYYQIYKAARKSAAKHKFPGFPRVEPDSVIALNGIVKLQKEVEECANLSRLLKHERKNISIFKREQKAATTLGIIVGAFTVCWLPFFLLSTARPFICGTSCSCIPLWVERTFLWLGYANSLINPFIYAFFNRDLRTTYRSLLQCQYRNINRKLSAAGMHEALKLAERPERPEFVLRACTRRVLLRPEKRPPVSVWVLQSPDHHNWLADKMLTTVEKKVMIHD
T1 sequence (P14416 whole entry): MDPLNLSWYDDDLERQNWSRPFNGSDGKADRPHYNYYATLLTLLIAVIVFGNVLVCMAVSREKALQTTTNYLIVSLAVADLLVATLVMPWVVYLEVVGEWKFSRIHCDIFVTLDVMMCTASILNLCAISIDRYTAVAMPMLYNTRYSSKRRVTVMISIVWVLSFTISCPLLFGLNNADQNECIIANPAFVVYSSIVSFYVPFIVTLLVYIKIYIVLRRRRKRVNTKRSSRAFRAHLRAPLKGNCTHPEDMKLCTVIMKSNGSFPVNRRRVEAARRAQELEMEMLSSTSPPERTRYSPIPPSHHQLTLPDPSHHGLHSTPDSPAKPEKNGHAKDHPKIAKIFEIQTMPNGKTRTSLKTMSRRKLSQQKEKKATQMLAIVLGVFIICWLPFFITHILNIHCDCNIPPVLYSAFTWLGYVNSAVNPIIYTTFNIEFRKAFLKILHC

SMILES | inhibition at 1 µM [1] [%] | inhibition at 0.1 µM [2] [%] | inhibition at 0.1 µM [3] [%] | inhibition at 0.1 µM [4] [%] | inhibition at 0.1 µM [1] [%]
Cc1csc(-c2ccccc2-n2c3c(c4cc(C)ccc42)CN(C)CC3)c1 [Compound 36] | 22 | 80 | 83 | 51 | 
Cc1ccc2c(c1)c1c(n2-c2ccc(-c3sccc3C)cn2)CCN(C)C1 [Compound No. 148, 2,8-dimethyl-5-(5-(3-methylthiophen-2-yl)pyridin-2-yl)-2,3,4,5-tetrahydro-1H-pyrido[4,3-b]indole] | 17 | 95 | 88 | 35 | 
Cc1ccc2c(c1)c1c(n2-c2cscc2-c2sccc2C)CCN(C)C1 [Compound 39] | 54 | 84 | 93 | 97 | 
Cc1ccc2c(c1)c1c(n2-c2cscc2-c2ccc(O)nc2)CCN(C)C1 [Compound 49] | 1 | 18 | 19 | 86 | 
Cc1ccc2c(c1)c1c(n2-c2cccc(-c3ccc(S(N)(=O)=O)cc3)c2)CCN(C)C1 [Compound No. 158, 3′-(2,8-dimethyl-3,4-dihydro-1H-pyrido[4,3-b]indol-5(2H)-yl)biphenyl-4-sulfonamide] |  | 91 | 47 | 26 | 1
CC(=O)Nc1ccc(-c2cccc(-n3c4c(c5cc(C)ccc53)CN(C)CC4)c2)cn1 [Compound 45, N-(5-(3-(2,8-dimethyl-3,4-dihydro-1H-pyrido[4,3-b]indol-5(2H)-yl)phenyl)pyridin-2-yl)acetamide] | 20 | 71 | 26 | 51 | 
Cc1ccc2c(c1)c1c(n2-c2cccc(-c3cc4ccccc4s3)c2)CCN(C)C1 [Compound 51, 5-(3-(benzo[b]thiophen-2-yl)phenyl)-2,8-dimethyl-2,3,4,5-tetrahydro-1H-pyrido[4,3-b]indole] | 3 | 86 | 55 | 13 | 
Cc1ccc2c(c1)c1c(n2-c2ccc(-c3cccc4ccccc34)cn2)CCN(C)C1 [Compound No. 141, 2,8-dimethyl-5-(5-(naphthalen-1-yl)pyridin-2-yl)-2,3,4,5-tetrahydro-1H-pyrido[4,3-b]indole] | 15 | 61 | 92 | 33 | 
Cc1ccc2c(c1)c1c(n2-c2cscc2-c2c(C)noc2C)CCN(C)C1 [Compound 62] | 16 | 68 | 56 | 48 | 
Cc1ccc2c(c1)c1c(n2-c2ccc(-c3cnc(N(C)C)nc3)cn2)CCN(C)C1 [Compound No. 138, 5-(6-(2,8-dimethyl-3,4-dihydro-1H-pyrido[4,3-b]indol-5(2H)-yl)pyridin-3-yl)-N,N-dimethylpyrimidin-2-amine] | -2 | 83 | 86 | 6 | 
Cc1ccc2c(c1)c1c(n2-c2cccc(-c3ccc(O)nc3)c2)CCN(C)C1 [Compound 52, 5-(3-(2,8-dimethyl-3,4-dihydro-1H-pyrido[4,3-b]indol-5(2H)-yl)phenyl)pyridin-2-ol] | 21 | 76 | 19 | 14 | 
Cc1ccc2c(c1)c1c(n2-c2ccccc2-c2c(C)noc2C)CCN(C)C1 [Compound No. 82, 4-(2-(2,8-dimethyl-3,4-dihydro-1H-pyrido[4,3-b]indol-5(2H)-yl)phenyl)-3,5-dimethylisoxazole] | 9 | 73 | 68 | 24 | 
Cc1ccc2c(c1)c1c(n2-c2ccc(-c3cccc4[nH]ncc34)cn2)CCN(C)C1 [Compound No. 147, 5-(5-(1H-indazol-4-yl)pyridin-2-yl)-2,8-dimethyl-2,3,4,5-tetrahydro-1H-pyrido[4,3-b]indole] | 33 | 62 | 69 | 14 | 
Cc1ccc2c(c1)c1c(n2-c2cccc(-c3ccnn3C)c2)CCN(C)C1 [Compound No. 66, 2,8-dimethyl-5-(3-(1-methyl-1H-pyrazol-5-yl)phenyl)-2,3,4,5-tetrahydro-1H-pyrido[4,3-b]indole] | 24 | 90 | 55 | 32 | 
Cc1ccc2c(c1)c1c(n2-c2cccc(-c3cncc4ccccc34)c2)CCN(C)C1 [Compound No. 67, 5-(3-(isoquinolin-4-yl)phenyl)-2,8-dimethyl-2,3,4,5-tetrahydro-1H-pyrido[4,3-b]indole] | 61 | 75 | 23 | 28 | 
CNC(=O)c1ccc(-c2cscc2-n2c3c(c4cc(C)ccc42)CN(C)CC3)cn1 [Compound No. 73] | 21 | 64 | 43 | 66 | 
Cc1ccc2c(c1)c1c(n2-c2cccc(-c3cccn3C)c2)CCN(C)C1 [Compound No. 69, 2,8-dimethyl-5-(3-(1-methyl-1H-pyrrol-2-yl)phenyl)-2,3,4,5-tetrahydro-1H-pyrido[4,3-b]indole] | 12 | 99 | 79 | 25 | 
Cc1ccc2c(c1)c1c(n2-c2cccc3ccncc23)CCN(C)C1 [Compound 58, 5-(isoquinolin-8-yl)-2,8-dimethyl-2,3,4,5-tetrahydro-1H-pyrido[4,3-b]indole] | 11 | 70 | 81 | 69 | 
Cc1ccc2c(c1)c1c(n2-c2cccc(-c3ccc(F)cc3)c2)CCN(C)C1 [Compound 61, 5-(4′-fluorobiphenyl-3-yl)-2,8-dimethyl-2,3,4,5-tetrahydro-1H-pyrido[4,3-b]indole] | 36 | 102 | 81 | 48 | 
Cc1ccc2c(c1)c1c(n2-c2cscc2-c2cc3ccccc3s2)CCN(C)C1 [Compound No. 151] |  | 32 | 47 | 90 | 1
Cc1ccc2c(c1)c1c(n2-c2cscc2-c2cnc(N(C)C)nc2)CCN(C)C1 [Compound 40] | 7 | 31 | 35 | 49 | 
